The target of one data set is T1, Caspase-3 (Homo sapiens, UniProt P42574).
T1 sequence (P42574 whole entry): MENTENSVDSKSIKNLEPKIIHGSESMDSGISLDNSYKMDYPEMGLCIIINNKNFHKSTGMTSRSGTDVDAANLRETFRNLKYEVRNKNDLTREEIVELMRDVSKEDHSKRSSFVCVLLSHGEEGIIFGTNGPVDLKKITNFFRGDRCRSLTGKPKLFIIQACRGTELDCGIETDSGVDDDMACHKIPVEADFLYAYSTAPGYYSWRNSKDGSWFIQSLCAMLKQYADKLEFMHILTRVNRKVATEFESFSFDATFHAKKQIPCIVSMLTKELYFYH
The data set is described as follows: Inhibition of human recombinant caspase 3.

Another data set concerns the target T2, Caspase-6 (Homo sapiens, UniProt P55212).
T2 sequence (P55212 whole entry): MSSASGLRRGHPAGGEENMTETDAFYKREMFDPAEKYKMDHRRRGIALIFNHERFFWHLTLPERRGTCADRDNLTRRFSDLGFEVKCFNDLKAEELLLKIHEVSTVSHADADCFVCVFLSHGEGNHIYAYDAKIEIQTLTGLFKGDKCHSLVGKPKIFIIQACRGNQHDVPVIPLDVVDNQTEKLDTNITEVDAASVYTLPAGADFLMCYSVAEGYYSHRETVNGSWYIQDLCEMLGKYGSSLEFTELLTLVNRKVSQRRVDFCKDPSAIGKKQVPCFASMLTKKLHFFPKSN
As to the kind of experiment: Inhibition of human recombinant caspase 6.

The next data set has as its target Caspase-8 (Homo sapiens, UniProt Q14790). The data set is described as follows: Inhibition of human recombinant caspase 8.
Another data set addresses T3, Caspase-1 (Homo sapiens, UniProt P29466).
T3 sequence (P29466 whole entry): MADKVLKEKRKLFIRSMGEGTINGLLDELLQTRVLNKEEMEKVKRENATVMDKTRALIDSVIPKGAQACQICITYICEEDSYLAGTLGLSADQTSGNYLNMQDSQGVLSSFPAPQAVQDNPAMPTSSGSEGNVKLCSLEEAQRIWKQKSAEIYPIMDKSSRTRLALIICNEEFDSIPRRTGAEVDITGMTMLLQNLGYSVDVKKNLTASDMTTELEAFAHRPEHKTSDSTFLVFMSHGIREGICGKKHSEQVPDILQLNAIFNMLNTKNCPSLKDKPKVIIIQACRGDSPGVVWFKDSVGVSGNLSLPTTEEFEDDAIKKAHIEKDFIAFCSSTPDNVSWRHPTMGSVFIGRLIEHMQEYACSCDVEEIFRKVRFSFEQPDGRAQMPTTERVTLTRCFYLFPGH
As to the kind of experiment: Inhibition of human recombinant caspase 1.

Data set [1] is filed under the species Rattus norvegicus. The data set is described as follows: Increase in uptake in liver of cycloheximide-treated Sprague-Dawley rat relative to control after 1 hr. The format is ADME, organism-based. As to conditions: in vivo; call rule not given here.
Data set [2] is filed under the species Rattus norvegicus. The data set is described as follows: Increase in uptake in spleen of cycloheximide-treated Sprague-Dawley rat relative to control after 1 hr. The format is ADME, organism-based. As to conditions: in vivo.
Data set [3] is filed under the species Rattus norvegicus. As to the kind of experiment: Effect on uptake in fat of cycloheximide-treated Sprague-Dawley rat relative to control after 1 hr. The format is ADME, organism-based, Adipose tissue. As to conditions: in vivo.

Sequence of Caspase-8 (Q14790 217-374 limits assumed): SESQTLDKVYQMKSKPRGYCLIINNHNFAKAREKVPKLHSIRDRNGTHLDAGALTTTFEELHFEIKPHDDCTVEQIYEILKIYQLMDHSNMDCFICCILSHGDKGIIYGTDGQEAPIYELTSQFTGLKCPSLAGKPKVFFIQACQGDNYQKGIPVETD
Sequence of Caspase-8 (Q14790 385-479 limits assumed): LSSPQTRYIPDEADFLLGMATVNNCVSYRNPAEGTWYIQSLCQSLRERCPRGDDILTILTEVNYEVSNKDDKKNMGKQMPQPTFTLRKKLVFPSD

For `O=C1C(=O)N(Cc2ccc(OCCF)cc2)c2ccc(S(=O)(=O)N3CCC[C@H]3COc3ccccc3)cc21`, the IC50 at Caspase-3 was 0.0097 µM; on Caspase-6, 3.7 µM; at Caspase-8, > 50 µM; at Caspase-1, > 50 µM.

Take `O=C1C(=O)N(Cc2ccc(OCC[18F])cc2)c2ccc(S(=O)(=O)N3CCC[C@H]3COc3ccccc3)cc21`: the Activity is reported as 94% in the data set listed under Rattus norvegicus [1], 184% in the data set filed under Rattus norvegicus [2] and “Not Active” in the data set filed under Rattus norvegicus [3].

As a reminder, the IC50 is the concentration needed to halve the response being measured.
